The subject of data set [1] is Aβ42. The data set is described as follows: In vivo efficacy: brain level of soluble Aβ42, non-transgenic rodents, single oral dose 30 mg/kg, 4 h, MSD electrochemiluminescence, untreated control = 100. Further details: species or system mouse. As to conditions: for Aβ42 (% vs Ctrl) _Mean: 30 mg/kg. The text has this:
(§1) To determine whether acute administration of an Aβ42 lowering agent would reduce Aβ42 levels in vivo, non-transgenic rodents, e.g. mice or rats were used. Animals treated with the Aβ42 lowering agent were examined and compared to those untreated or treated with vehicle and brain levels of soluble Aβ42, Aβ40, Aβ38, and Aβ37 were quantitated by Meso Scale Discovery's (MSD) electrochemiluminescence detection technology. Treatment periods varied from hours (h) to days and were adjusted based on the results of the Aβ42 lowering once a time course of onset of effect could be established.
(§2) A typical protocol for measuring Aβ42 lowering in vivo is shown but it is only one of many variations that could be used to optimize the levels of detectable Aβ. For example, Aβ42 lowering compounds were formulated in 20% of Captisol® (a sulfobutyl ether of β-cyclodextrin) in water or 20% hydroxypropyl β cyclodextrin. The Aβ42 lowering agents were administered as a single oral dose or by any acceptable route of administration to overnight fasted animals. After 4 h, the animals were sacrificed and Aβ42 levels were analysed.
(§3) Blood was collected by decapitation and exsanguinations in EDTA-treated collection tubes. Blood was centrifuged at 1900 g for 10 minutes (min) at 4° C. and the plasma recovered and flash frozen for later analysis. The brain was removed from the cranium and hindbrain. The cerebellum was removed and the left and right hemisphere were separated. The left hemisphere was stored at −18° C. for quantitative analysis of test compound levels. The right hemisphere was rinsed with phosphate-buffered saline (PBS) buffer and immediately frozen on dry ice and stored at −80° C. until homogenization for biochemical assays.
(§4) Mouse brains from non-transgenic animals were resuspended in 8 volumes of 0.4% DEA (diethylamine)/50 mM NaCl containing protease inhibitors (Roche-11873580001 or 04693159001) per gram of tissue, e.g. for 0.158 g brain, add 1.264 ml of 0.4% DEA. All samples were homogenized in the FastPrep-24 system (MP Biomedicals) using lysing matrix D (MPBio #6913-100) at 6 m/s for 20 seconds. Homogenates were centrifuged at 20800×g for 5 min and supernatants collected. Supernatants were centrifuged at 221.300×g for 50 min. The resulting high speed supernatants were then transferred to fresh eppendorf tubes. Nine parts of supernatant were neutralized with 1 part 0.5 M Tris-HCl pH 6.8 and used to quantify Aβ.
(§5) To quantify the amount of Aβ42, Aβ40, Aβ38, and Aβ37 in the soluble fraction of the brain homogenates, simultaneous specific detection of Aβ42, Aβ40, Aβ38, and Aβ37 was performed using MSD's electro-chemiluminescence multiplex detection technology. In this assay purified monoclonal antibodies specific for Abeta37 (JRD/Aβ37/3), Abeta38 (J&JPRD/Aβ38/5), Abeta40 (JRF/cAβ40/28), and Abeta42 (JRF/cAβ42/26) were coated on MSD 4-plex plates. Briefly, the standards (a dilution of synthetic Aβ42, Aβ40, Aβ38, and Aβ37) were prepared in 1.5 ml Eppendorf tube in Ultraculture, with final concentrations ranging from 10000 to 0.3 pg/m. The samples and standards were co-incubated with Sulfo-tag labelled JRF/rAß/2 antibody to the N-terminus of Aβ as detector antibody. 50 μl of conjugate/sample or conjugate/standards mixtures were then added to the antibody-coated plate. The plate was allowed to incubate overnight at 4° C. in order to allow formation of the antibody-amyloid complex. Following this incubation and subsequent wash steps the assay was finished by adding read buffer according to the manufacturer's instructions (Meso Scale Discovery, Gaitherburg, Md.).
(§6) The SULFO-TAG emits light upon electrochemical stimulation initiated at the electrode. MSD Sector instrument SI6000 was used for signal read-out.
In this model a Aß42 lowering compared to untreated animals would be advantageous, in particular a Aß42 lowering with at least 10%, more in particular a Aß42 lowering with at least 20%. […]

Data set [2] concerns Aβ40. The data set is described as follows: In vivo efficacy: brain level of soluble Aβ40, non-transgenic rodents, single oral dose 30 mg/kg, 4 h, MSD electrochemiluminescence, untreated control = 100. Also on record: species or system mouse.
Source text: as §1, §2, §3, §4, §5
The SULFO-TAG emits light upon electrochemical stimulation initiated at the electrode. MSD Sector instrument SI6000 was used for signal read-out. […]

The subject of data set [3] is Aβ38. The data set can be described thus: In vivo efficacy: brain level of soluble Aβ38, non-transgenic rodents, single oral dose 30 mg/kg, 4 h, MSD electrochemiluminescence, untreated control = 100. Also on record: species or system mouse. As to conditions: for Aβ38 (% vs Ctrl) _Mean: 30 mg/kg.
Source text: To determine whether acute administration of an Aβ38 increasing agents would increase Aβ38 levels in vivo, non-transgenic rodents, e.g. mice or rats were used. Animals treated with the Aβ38 increasing agents were examined and compared to those untreated or treated with vehicle and brain levels of soluble Aβ42, Aβ40, Aβ38, and Aβ37 were quantitated by MSD electrochemiluminescence detection technology.
Treatment periods varied from hours (h) to days and were adjusted based on the results of the Aβ38 increase once a time course of onset of effect could be established.
A typical protocol for measuring Aβ38 increase in vivo is shown but it is only one of many variations that could be used to optimize the levels of detectable Aβ. For example, Aβ38 increasing agents were formulated in 20% of Captisol® (a sulfobutyl ether of β-cyclodextrin) in water or 20% hydroxypropyl β cyclodextrin. The Aβ38 increasing agents were administered as a single oral dose or by any acceptable route of administration to overnight fasted animals. After 4 h, the animals were sacrificed and Aβ38 levels were analysed.
as §3, §4
as §5, with “[…].” for “pg/m.”
as §6
In this model a Aß38 increase compared to untreated animals would be advantageous, in particular a Aß38 increase with at least 10%, more in particular a Aß38 increase with at least 20%. […]

The mark [4] stands for this setting: Mus musculus, sc, 30 mpk sc, read-out: Aβ42 (% vs Ctrl) _Mean.
Where [5] appears, read: Mus musculus, sc, 30 mpk sc (footnote *), read-out: Aβ40 (% vs Ctrl) _Mean.
[6] abbreviates: Mus musculus, sc, 30 mpk sc, read-out: Aβ38 (% vs Ctrl) _Mean.
[7] abbreviates: Mus musculus, po, dose 30 mg/kg oral dosing, read-out: Aβ42 (% vs Ctrl) _Mean.
The mark [8] stands for this setting: Mus musculus, po, dose 30 mg/kg oral dosing, read-out: Aβ40 (% vs Ctrl) _Mean.
The mark [9] stands for this setting: Mus musculus, po, dose 30 mg/kg oral dosing, read-out: Aβ38 (% vs Ctrl) _Mean.

What is called melting point is the temperature, or range, at which the solid turns liquid.

SMILES strings stand for the structures. Like-named read-outs stand apart in the source and are kept apart here.

In the case of `Cc1cn(-c2ccc3n(c2=O)CC(C)N(C(C)c2coc4ccc(Cl)cc24)C3=O)cn1` (single isomer, unassigned) [Compound 57], the response vs control in vivo at 30 mg/kg came out at 100% in data set [1] (setting [4]), 105% in data set [2] (setting [5]) and 134% in data set [3] (setting [6]).
With `Cc1cn(-c2ccc3n(c2=O)CCN(C(C)c2coc4cc(F)c(Cl)cc24)C3=O)cn1` (single isomer, unassigned) [Compound 61], the melting point came out at 231 °C. For the same compound, the response vs control in vivo at 30 mg/kg in data set [1] (setting [7]) came to 86%. Further, the response vs control in vivo at 30 mg/kg in data set [2] (setting [8]) was determined as 90%. In data set [3] (setting [9]), the response vs control in vivo at 30 mg/kg was determined as 192%.
Consider `Cc1cn(-c2ccc3n(c2=O)CC(C)N(C(C)c2coc4cc(F)c(Cl)cc24)C3=O)cn1` (single isomer, unassigned) [Compound 65], for which the response vs control in vivo at 30 mg/kg in data set [1] (setting [7]) was found to be 58%; in data set [2] (setting [8]), 52%; in data set [3] (setting [9]), 165%.
On to `Cc1cn(-c2ccc3n(c2=O)CC(C)N(C(C)c2coc4cc(F)c(C(F)(F)F)cc24)C3=O)cn1` (single isomer, unassigned) [Compound 89], for which the melting point was found to be 230 °C. The response vs control in vivo at 10 mg/kg in data set [1] (Mus musculus, po, 10 mpk po, read-out: Aβ42 (% vs Ctrl) _Mean) was determined as 58%. Further, in data set [2] (Mus musculus, po, 10 mpk po, read-out: Aβ40 (% vs Ctrl) _Mean), the response vs control in vivo at 10 mg/kg is 67%. For the same compound, the response vs control in vivo at 10 mg/kg in data set [3] (Mus musculus, po, 10 mpk po, read-out: Aβ38 (% vs Ctrl) _Mean) is 132%.
The compound `Cc1cn(-c2ccc3n(c2=O)C[C@@H](C)N(Cc2cc4cc(Br)ccc4o2)C3=O)cn1` [Compound 13] showed a melting point of 159 °C. For the same compound, in data set [1] (setting [7]), the response vs control in vivo at 30 mg/kg was 77%. The response vs control in vivo at 30 mg/kg in data set [2] (setting [8]) was 101%. Also, the response vs control in vivo at 30 mg/kg in data set [3] (setting [9]) is 117%.
On to `Cc1cn(-c2ccc3n(c2=O)CC(C)N(Cc2ccc(C)c(N4CC5CC5C4)c2)C3=O)cn1` (stereo not drawn) [Compound 30], for which the results for the response vs control in vivo at 30 mg/kg in data set [1] (setting [7]), in data set [2] (setting [8]) and in data set [3] (setting [9]) were 118%, 126% and 121%, respectively.
Taken in the same sequence, the figures for `Cc1cn(-c2ccc3n(c2=O)C[C@@H](C)N(Cc2cc(OC4CC4)cc(C(F)(F)F)c2)C3=O)cn1` [Compound 33] were 57%, 79% and 132%.
Turning to `Cc1cn(-c2ccc3n(c2=O)CC(C)N(Cc2cc4c(s2)CCC(C(F)(F)F)C4)C3=O)cn1` (stereo not drawn) [Compound 34], the response vs control in vivo at 30 mg/kg in data set [1] (setting [7]) worked out at 104%; in data set [2] (setting [8]), 128%; in data set [3] (setting [9]), 102%.
In the case of `Cc1cn(-c2ccc3n(c2=O)CC(C)N(Cc2csc4c2CC(C(F)(F)F)CC4)C3=O)cn1` (stereo not drawn) [Compound 35], the response vs control in vivo at 30 mg/kg stood at 112% in data set [1] (setting [7]), 108% in data set [2] (setting [8]) and 116% in data set [3] (setting [9]).
On to `Cc1cn(-c2ccc3n(c2=O)CC(C)N(C(C)c2cc(OC4CC4)cc(C(F)(F)F)c2)C3=O)cn1` (stereo not drawn) [Compound 48], for which, in data set [1] (dose 30 mg/kg oral dosing), the “Aβ42 (% vs Ctrl) _Mean” value is listed as 60 % vs Ctrl. Besides, the response vs control in vivo at 30 mg/kg in data set [2] (setting [8]) is 91%. In addition, the “Aβ38 (% vs Ctrl) _Mean” value in data set [3] (dose 30 mg/kg oral dosing) is recorded as 161 % vs Ctrl.
With `Cc1cn(-c2ccc3n(c2=O)CC(C)N(C(C)c2cc(OC4CC4)cc(C(F)(F)F)c2)C3=O)cn1` (stereo not drawn) [Compound 49], in data set [1] (dose 30 mg/kg oral dosing), the “Aβ42 (% vs Ctrl) _Mean” value was 85 % vs Ctrl. Moreover, in data set [2] (dose 30 mg/kg oral dosing, 30 mg/kg), the “Aβ40 (% vs Ctrl) _Mean” value was found to be 101 % vs Ctrl. For the same compound, the “Aβ38 (% vs Ctrl) _Mean” value in data set [3] (dose 30 mg/kg oral dosing) is listed as 123 % vs Ctrl.
For `Cc1cn(-c2ccc3n(c2=O)C[C@@H](C)N(CC2(c4cc(OC5CC5)cc(C(F)(F)F)c4)CC2)C3=O)cn1` [Compound 53], the response vs control in vivo at 30 mg/kg in data set [1] (setting [7]) is 120%; in data set [2] (setting [8]), 121%; in data set [3] (setting [9]) it was 124%.
`Cc1cn(-c2ccc3n(c2=O)C[C@@H](C)N(Cc2coc4ccc(Cl)cc24)C3=O)cn1` [Compound 55]: the response vs control in vivo at 30 mg/kg in data set [1] (setting [7]) is 93%; in data set [2] (setting [8]) it was 113%; in data set [3] (setting [9]), 142%.
For `Cc1cn(-c2ccc3n(c2=O)C[C@@H](C)N(Cc2coc4c(F)cc(Cl)cc24)C3=O)cn1` [Compound 62], the response vs control in vivo at 30 mg/kg was determined as 82% in data set [1] (setting [7]), 87% in data set [2] (setting [8]) and 113% in data set [3] (setting [9]).
Regarding `Cc1cn(-c2ccc3n(c2=O)C[C@@H](C)N(Cc2coc4cc(F)c(Cl)cc24)C3=O)cn1` [Compound 63], the results for the response vs control in vivo at 30 mg/kg in data set [1] (setting [4]), in data set [2] (setting [5]) and in data set [3] (setting [6]) were 58%, 62% and 135%, respectively.
Regarding `Cc1cn(-c2ccc3n(c2=O)CC(C)N(C(C)c2coc4ccc(C(F)(F)F)cc24)C3=O)cn1` (stereo not drawn) [Compound 79], the response vs control in vivo at 30 mg/kg is 54% in data set [1] (setting [4]), 62% in data set [2] (setting [5]) and 175% in data set [3] (setting [6]).
The matching figures for `Cc1cn(-c2ccc3n(c2=O)C[C@@H](C)N(Cc2coc4ccc(OC(F)(F)F)cc24)C3=O)cn1` [Compound 83]: 40%, 41% and 166%.

Values taken from patent US10562897B2, “Substituted 3,4-dihydro-2H-pyrido[1,2-a]pyrazine-1,6-diones as gamma secretase modulators” (Janssen Pharmaceutica NV, priority 2014, dated 2020).
